Source: patent US20090215713A1, “Use of atp for the manufacture of a medicament for the prevention and treatment of oxidative stress and related conditions” (priority 2004, published 2009)
Entries after “also recorded” stand apart in the source; their conditions may differ.

Key:
TNF-α = assay: LPS+PHA-induced TNF-α secretion in whole blood from healthy subjects (ELISA); assay type: cell-based, human; details: for effect of purinergic compound on LPS+PHA-induced TNF-α release: 300 μM, 24 h; for effect on inhibiting TNFα and stimulating IL-10 production: LPS-PHA stimulated whole blood, Experiment 4
Protocol: FIG. 7 Effect of ATP on LPS+PHA-induced TNF-α secretion in whole blood from healthy subjects. The whole blood was exposed to 10 μg/ml LPS and 1 μg/ml PHA with indicated concentrations of ATP for 24 h. The TNF-α released into the supernatants was analyzed using the ELISA method. Results are expressed in percentage, 100% being the TNF-α release under stimulation by LPS+PHA without ATP. […] Data are expressed as the mean values; error bars represent SEM. *, different from control (stimulation by LPS+PHA without ATP) (P<0.05).
FIG. 13 Effect of different purinergic compounds on LPS+PHA-induced TNF-α secretion in whole blood. The whole blood was exposed to 10 μg/ml LPS and 1 μg/ml PHA with the indicated purinergic compounds at the concentration of 300 μM for 24 h. The TNF-α released into the supernatant was analyzed using the ELISA method. Results are expressed in percentage, 100% being the TNF-α release under stimulation by LPS+PHA without addition of a purinergic compound (control). […] The TNF-α release induced by LPS+PHA from whole blood was not inhibited by UTP, UDP or CTP. Data are expressed as the mean values; error bars represent SEM.
Blood was collected from 8 healthy subjects in heparin containing vacutainer tubes. All incubations were performed in duplicate. ATP was dissolved in RPMI 1640 culture medium, at a final concentration of 1-300 μM, and blood pre-incubated with ATP at 5% CO2 at 37 DC for 30 min. After stimulation with LPS en PHA (10 and 1 μg/ml final concentration, respectively), the plates were incubated in 5% CO2 at 37° C. for 24 h. Cell-free supernatant fluids were then collected by centrifugation (6000 rpm, 10 min at 4° C.) and stored at −20° C. until tested for presence of cytokines. All cytokines were quantified by means of PeliKine Compact human ELISA kits (CLB/Sanquin, The Netherlands), based on appropriate and validated sets of monoclonal antibodies.
Whole blood was collected and stimulated with LPS+PHA as described for Experiment 2. ATP, dissolved in RPMI 1640 culture medium, was added to the blood at a final concentration of 1-1000 μM. The agonists were added in the same way as ATP, however their stock solutions are prepared in PBS and further diluted in medium. All incubations are performed in duplicate.

[1] = tested on: mice bearing colon tumour; details: cited from earlier work; for effect on host weight loss: daily intraperitoneal injections of 25 mmol/L for 10 days
[2] = ESR measurement of DMPO—OH spin adducts during Fenton chemistry; assay type: biochemical
Protocol: The effect of ATP on the formation or scavenging of hydroxyl radicals, generated by Fenton reagents was measured as DMPO—OH spin adducts in ESR spectra. The ESR studies were performed at room temperature using a Bruker EMX 1273 spectrometer equipped with an ER 4119HS high sensitivity cavity and 12 kW power supply. The following instrument conditions were used: scan range, 60 G; center magnetic field, 3490 G; modulation amplitude, 1.0 G; microwave frequency, 9.86 GHz; time constant, 40.96 ms, scan time, 20.48 ms; number of scans, 50. OH radicals were generated by the Fenton reaction, and 5,5-dimethyl-1-pyrroline N-oxide (DMPO) was used for trapping hydroxyl radicals. Fifty microliters of 10 mM H2O2, 50 μl of 250 mM DMPO, 50 μl milliQ, 50 μl milliQ (control) or sample, and 50 μl 5 mM FeSO4/5 mM EDTA were mixed, and then transferred to a capillary glass tube. After 2 minutes, DMPO—OH spin adducts were measured by ESR. Quantification of the spectra was performed by peak integration using the WIN-EPR spectrum manipulation program.
Electron spin resonance (ESR) studies were performed at room temperature using a Bruker EMX 1273 spectrometer equipped with an ER 4119HS high sensitivity cavity and 12 kW power supply. The following instrument conditions were used: scan range, 60 G; center magnetic field, 3490 G; modulation amplitude, 1.0 G; microwave frequency, 9.86 GHz; time constant, 40.96 ms, scan time, 20.48 ms; number of scans, 50. OH radicals were generated by the Fenton reaction, and 5,5-Dimethyl-1-pyrroline N-oxide (DMPO) was used for trapping hydroxyl radicals. Fifty microliters of 10 mM H2O2, 50 μl 250 mM DMPO, 50 μl milliQ, 50 μl milliQ (blanco) or sample and 50 μl 5 mM FeSO4/5 mM EDTA were mixed, transferred to a capillary glass tube and the DMPO—OH spin adducts were measured after 2 minutes by ESR. Quantification of the spectra (in arbitrary units) was performed by peak integration using the WIN-EPR spectrum manipulation program.

| SMILES | effect of purinergic compound on LPS+PHA-induced TNF-α release (TNF-α) | effect on inhibiting TNFα and stimulating IL-10 production (TNF-α) | further results |
| --- | --- | --- | --- |
| Nc1ccn([C@@H]2O[C@H](COP(=O)(O)OP(=O)(O)OP(=O)(O)O)[C@@H](O)[C@H]2O)c(=O)n1 [CTP] | not inhibited | little or no effect |  |
| Nc1ncnc2c1ncn2[C@@H]1O[C@H](COP(=O)(O)O)[C@@H](O)[C@H]1O [AMP] | inhibited |  | effect on host weight loss [1]: significant inhibition; effect on hydroxyl radicals ([2]; 0.1, 0.3 and 1 mM): no significant effect; effect on hydroxyl radicals ([2]; 3 and 10 mM): reduction of hydroxyl radicals; also recorded: significant (P<0.05) reduction |
| Nc1ncnc2nc[nH]c12 [adenine] |  |  | effect on DMPO—OH spin adduct formation / hydroxyl radicals ([2]; 1 mM): little or no effect; also recorded: no significant (P<0.05) effect |
| Nc1ncnc2c1ncn2[C@@H]1O[C@H](CO)[C@@H](O)[C@H]1O [adenosine] | least inhibition |  | inhibition of host weight loss of tumour-bearing animals ([1]; adenosine without phosphate): ineffective; effect on host weight loss [1]: significant inhibition |
| O=c1ccn([C@@H]2O[C@H](COP(=O)(O)OP(=O)(O)O)[C@@H](O)[C@H]2O)c(=O)[nH]1 [UDP] | not inhibited | little or no effect |  |
| Nc1ncnc2c1ncn2[C@@H]1O[C@H](COP(=O)(O)OP(=O)(O)O)[C@@H](O)[C@H]1O [ADP] | inhibited |  | effectiveness in preventing DMPO—OH formation relative to comparator ([2]; 0.1 mM-10 mM): slightly less effective; inhibition of the DMPO—OH spin adduct formation ([2]; highest concentration used (range 0.1 mM-10 mM)): ≈ 70% |
| O=c1ccn([C@@H]2O[C@H](COP(=O)(O)OP(=O)(O)OP(=O)(O)O)[C@@H](O)[C@H]2O)c(=O)[nH]1 [UTP] | not inhibited | little or no effect |  |
